We go through eleven compounds from PubChem BioAssay AID246 (DTP/NCI, 2004).

SMILES strings stand for the structures. Where “and” joins values, the source holds several entries; their conditions need not be identical. Identical values can stand only once. Toxic doses and inconclusive results are not listed.

This experiment deals with BDF1 mice, P1081 chloroleukemia ip, survival T/C. Description: NCI In Vivo Anticancer Drug Screen. Data for tumor model P1081 Chloroleukemia (intraperitoneal) in B6D2F1 (BDF1) mice. The settings on record: endpoint: mean survival time, higher = longer survival. The method, then: The antitumor activity of compounds was measured in mice bearing transplantable tumors. Survival or tumor size were measured and the results are expressed as the measurement made in the treated group (T) divided by the measurement made in the vehicle treated control group (C). The tumor model used in this assay is P1081 Chloroleukemia (intraperitoneal) in B6D2F1 (BDF1) mice

Setting [1] is: dose: 20.0 mg/kg/injection, schedule: Q01DX010 (ip), vehicle: saline.
The mark [2] stands for this setting: dose: 40.0 mg/kg/injection, schedule: Q01DX010 (ip), vehicle: saline.
The mark [3] stands for this setting: dose: 25.0 mg/kg/injection, schedule: Q01DX010 (ip), vehicle: saline.
Where [4] appears, read: dose: 50.0 mg/kg/injection, schedule: Q01DX010 (ip), vehicle: saline.
Setting [5] is: dose: 62.5 mg/kg/injection, schedule: Q01DX Z (ip), vehicle: carboxymethylcellulose (CMC).

As to `Cc1cc(N(CCCl)CCCl)ccc1N=Nc1ccccc1C(=O)O`, the T/C by setting is: (dose: 5.0 mg/kg/injection, schedule: Q01DX010 (ip), vehicle: saline) 105 % of control; (dose: 7.5 mg/kg/injection, schedule: Q01DX Z (ip), vehicle: carboxymethylcellulose (CMC)) 101 % of control; (dose: 10.0 mg/kg/injection, schedule: Q01DX010 (ip), vehicle: saline) 110 % of control and 95 % of control; (dose: 15.0 mg/kg/injection, schedule: Q01DX Z (ip), vehicle: carboxymethylcellulose (CMC)) 104 % of control; under setting [1], 110 % of control and 90 % of control; (dose: 30.0 mg/kg/injection, schedule: Q01DX Z (ip), vehicle: carboxymethylcellulose (CMC)) 104 % of control. The T/C under setting [2] is 110 % of control.
In the case of `O=P1(N(CCCl)CCCl)NCCCO1` (centres undefined), the T/C is, setting by setting: (dose: 3.12 mg/kg/injection, schedule: Q01DX Z (ip), vehicle: saline) 110 % of control; (dose: 6.25 mg/kg/injection, schedule: Q01DX Z (ip), vehicle: saline) 119 % of control; (dose: 6.3 mg/kg/injection, schedule: Q01DX Z (ip), vehicle: saline) 102 % of control; (dose: 11.3 mg/kg/injection, schedule: Q01DX010 (ip), vehicle: saline) 113 % of control and 117 % of control (2×); (dose: 22.5 mg/kg/injection, schedule: Q01DX010 (ip), vehicle: saline) 107 % of control and 120 % of control and 121 % of control; (dose: 45.0 mg/kg/injection, schedule: Q01DX010 (ip), vehicle: saline) 105 % of control and 107 % of control. The T/C was 105 % of control and 90 % of control (dose: 90.0 mg/kg/injection, schedule: Q01DX010 (ip), vehicle: saline); 115 % of control (dose: 100.0 mg/kg/injection, schedule: Q01DX Z (ip), vehicle: saline); 87 % of control (dose: 180.0 mg/kg/injection, schedule: Q01DX010 (ip), vehicle: saline).
Regarding `COS(C)(=O)=O`, the T/C was 94 % of control (dose: 1.6 mg/kg/injection, schedule: Q01DX Z (ip), vehicle: water); 99 % of control (dose: 3.1 mg/kg/injection, schedule: Q01DX Z (ip), vehicle: water); 120 % of control and 103 % of control (dose: 6.25 mg/kg/injection, schedule: Q01DX Z (ip), vehicle: water); 109 % of control (dose: 12.5 mg/kg/injection, schedule: Q01DX Z (ip), vehicle: water); 95 % of control under setting [3]; 112 % of control and 98 % of control (dose: 25.0 mg/kg/injection, schedule: Q01DX Z (ip), vehicle: water). Also, the T/C is 115 % of control under setting [4]; 90 % of control (dose: 50.0 mg/kg/injection, schedule: Q01DX Z (ip), vehicle: water); 91 % of control (dose: 100.0 mg/kg/injection, schedule: Q01DX Z (ip), vehicle: water).
Regarding `CCCCn1cnc2c(=S)nc[nH]c21`, the T/C (dose: 12.5 mg/kg/injection, schedule: Q01DX Z (ip), vehicle: carboxymethylcellulose (CMC)) was 105 % of control; the T/C (dose: 16.0 mg/kg/injection, schedule: Q01DX010 (ip), vehicle: saline) is 115 % of control; the T/C (dose: 25.0 mg/kg/injection, schedule: Q01DX Z (ip), vehicle: carboxymethylcellulose (CMC)) is 98 % of control; the T/C (dose: 50.0 mg/kg/injection, schedule: Q01DX Z (ip), vehicle: carboxymethylcellulose (CMC)) was 114 % of control; the T/C (dose: 100.0 mg/kg/injection, schedule: Q01DX Z (ip), vehicle: carboxymethylcellulose (CMC)) is 98 % of control; the T/C (dose: 128.0 mg/kg/injection, schedule: Q01DX010 (ip), vehicle: saline) is 95 % of control.
On to `CN(C)[C@@H]1C(=O)C(C(N)=O)=C(O)[C@@]2(O)C(=O)C3=C(O)c4c(O)cccc4C[C@H]3C[C@@H]12`, for which the T/C reads like this: (dose: 7.5 mg/kg/injection, schedule: Q01DX010 (ip), vehicle: saline) 100 % of control; (dose: 15.0 mg/kg/injection, schedule: Q01DX010 (ip), vehicle: saline) 90 % of control and 100 % of control; (dose: 30.0 mg/kg/injection, schedule: Q01DX010 (ip), vehicle: saline) 100 % of control and 105 % of control; (dose: 60.0 mg/kg/injection, schedule: Q01DX010 (ip), vehicle: saline) 111 % of control.
As to `CN(C)c1nc(N(C)C)nc(N(C)C)n1`, the T/C (dose: 16.0 mg/kg/injection, schedule: Q01DX Z (ip), vehicle: carboxymethylcellulose (CMC)) is 95 % of control; the T/C (dose: 18.8 mg/kg/injection, schedule: Q01DX010 (ip), vehicle: saline) is 116 % of control and 100 % of control; the T/C (dose: 31.0 mg/kg/injection, schedule: Q01DX Z (ip), vehicle: carboxymethylcellulose (CMC)) was 92 % of control; the T/C (dose: 37.5 mg/kg/injection, schedule: Q01DX010 (ip), vehicle: saline) is 116 % of control and 100 % of control; the T/C under setting [5] is 88 % of control; the T/C (dose: 63.0 mg/kg/injection, schedule: Q01DX Z (ip), vehicle: carboxymethylcellulose (CMC)) is 123 % of control. In addition, the T/C was 116 % of control and 105 % of control (dose: 75.0 mg/kg/injection, schedule: Q01DX010 (ip), vehicle: saline); 111 % of control and 100 % of control (dose: 150.0 mg/kg/injection, schedule: Q01DX010 (ip), vehicle: saline).
Turning to `O=C1CCC(N2C(=O)c3ccccc3C2=O)C(=O)N1` (centres undefined), the T/C by setting is: (dose: 18.75 mg/kg/injection, schedule: Q01DX Z (ip), vehicle: carboxymethylcellulose (CMC)) 89 % of control; (dose: 37.5 mg/kg/injection, schedule: Q01DX Z (ip), vehicle: carboxymethylcellulose (CMC)) 98 % of control; (dose: 75.0 mg/kg/injection, schedule: Q01DX Z (ip), vehicle: carboxymethylcellulose (CMC)) 94 % of control; (dose: 150.0 mg/kg/injection, schedule: Q01DX Z (ip), vehicle: carboxymethylcellulose (CMC)) 94 % of control.
For `CC/C(=C(/CC)c1ccc(O)cc1)c1ccc(O)cc1`, the T/C by setting is: (dose: 12.5 mg/kg/injection, schedule: Q01DX010 (ip), vehicle: saline) 100 % of control; (dose: 16.0 mg/kg/injection, schedule: Q01DX Z (sc), vehicle: steriod suspending solution) 95 % of control; under setting [3], 100 % of control and 105 % of control; under setting [4], 100 % of control and 105 % of control; (dose: 125.0 mg/kg/injection, schedule: Q01DX Z (sc), vehicle: steriod suspending solution) 88 % of control.
Take `Cc1n[nH]c(=O)[nH]c1=O`: the T/C is 98 % of control (dose: 200.0 mg/kg/injection, schedule: Q01DX Z (ip), vehicle: other); 105 % of control (dose: 400.0 mg/kg/injection, schedule: Q01DX Z (ip), vehicle: other); 106 % of control and 96 % of control (dose: 800.0 mg/kg/injection, schedule: Q01DX Z (ip), vehicle: other).
Regarding `OCC1OC(n2cnc3c(=S)nc[nH]c32)C(O)C1O` (centres undefined), the T/C under setting [1] was 110 % of control and 105 % of control; the T/C under setting [2] was 110 % of control and 100 % of control; the T/C under setting [5] was 160 % of control; the T/C (dose: 80.0 mg/kg/injection, schedule: Q01DX010 (ip), vehicle: saline) is 115 % of control and 120 % of control; the T/C (dose: 125.0 mg/kg/injection, schedule: Q01DX Z (ip), vehicle: carboxymethylcellulose (CMC)) was 158 % of control; the T/C (dose: 160.0 mg/kg/injection, schedule: Q01DX010 (ip), vehicle: saline) is 120 % of control. Also, the T/C by setting is: (dose: 250.0 mg/kg/injection, schedule: Q01DX Z (ip), vehicle: carboxymethylcellulose (CMC)) 104 % of control; (dose: 500.0 mg/kg/injection, schedule: Q01DX Z (ip), vehicle: carboxymethylcellulose (CMC)) 94 % of control.
In the case of `CCCCCCCCCCCCNCCCCCCCCCCCC`, the T/C is, setting by setting: (dose: 0.24 mg/kg/injection, schedule: Q01DX Z (ip), vehicle: saline) 91 % of control; (dose: 0.48 mg/kg/injection, schedule: Q01DX Z (ip), vehicle: carboxymethylcellulose (CMC)) 112 % of control; (dose: 0.48 mg/kg/injection, schedule: Q01DX Z (ip), vehicle: saline) 90 % of control; (dose: 1.9 mg/kg/injection, schedule: Q01DX Z (ip), vehicle: carboxymethylcellulose (CMC)) 101 % of control; (dose: 1.9 mg/kg/injection, schedule: Q01DX Z (ip), vehicle: saline) 94 % of control; (dose: 3.8 mg/kg/injection, schedule: Q01DX Z (ip), vehicle: carboxymethylcellulose (CMC)) 103 % of control.
